Tests used:
Type in all cases: cell-based
[1] = tested on: Ustilago maydis; experiment: In vitro fungitoxicity assay against Ustilago maydis in copper-minus and copper-plus medium; details: 1 μg/mL, calculated with Colby formula
[2] = tested on: Phytophthora capsici; experiment: In vitro fungitoxicity assay against Phytophthora capsici in copper-minus AS and copper-plus AS medium
[3] = tested on: Leptosphaeria nodorum (LEPTNO); experiment: In vitro fungitoxicity assay against Leptosphaeria nodorum (LEPTNO) in copper-minus and copper-plus medium; details: CuCl2 10 μM, no test compound, across experiments

Structure (SMILES)	% Inhn. Plus copper Predicted [1]	% Inhn Plus copper Predicted ([2]; 0.050 μg/mL, calculated with Colby formula)	LEPTNO % Inhn. attributed to copper chloride alone [3]	% Inhn attributed to copper chloride alone ([2]; CuCl2 50 uM, no test compound, across experiments)
C/C(=N\NC(=O)c1ccc(Cl)cc1)c1cc(F)cc(F)c1O [Compound 96]	53.6%	7.2%	–	–
[Cl][Cu][Cl] [CuCl2, copper chloride]	–	–	7.1 ± 6.0%	4.5 ± 7.9%
